Entries after “also recorded” stand apart in the source; their conditions may differ. Where two headings read alike, the source gives them in different places.

Broadly, the IC50 is the concentration needed to halve the response being measured.

Experiment [1] concerns the target T1, electric eel acetylcholinesterase (Electrophorus electricus, UniProt O42275). As to conditions: read-out: Cholinesterase IC50; Table 3; acetylcholinesterase.
Description: (§1) We prepared cell fractions from rat brain homogenates, and assayed membrane FAAH activity and cytosol MGL activity using anandamide [ethanolamine-3H] (American Radiolabeled Chemicals, ARC (St. Louis Mo.), 60 Ci/mmol) and 2-mono-oleoyl-glycerol-[glycerol-1,2,3^−3H] (ARC, St. Louis Mo., 20 Ci/mmol), respectively, as substrates (Dinh, T. Proc. Natl. Acad. Sci. U.S.A. (2002)). We conducted [^3H]anandamide transport assays in human astrocytoma cells (Piomelli, D. et al., Proc. Natl. Acad. Sci. U.S.A., 96, 5802-5807 (1999)); CB1 and CB2 binding assays in rat cerebellar membranes and CB2-overexpressing Chinese hamster ovary cells (Receptor Biology-Perkin Elmer, Wellesley, Mass.), respectively, using [^3H]WIN-55212-2 (NEN-Dupont, Boston, Mass., 40-60 Ci/mmol) as a ligand (Devane, W. A. et al. Science, 258, 1946-1949 (1992)); cholinesterase assays with a commercial kit (Sigma, St. Louis, Mo.), using purified enzymes (electric eel acetylcholinesterase type V-S and horse serum cholinesterase; both from Sigma, St. Louis, Mo.) and following manufacturer's instructions.
The next experiment addresses T2, FAAH (Rattus norvegicus, UniProt P97612).
T2 sequence (P97612 1-579): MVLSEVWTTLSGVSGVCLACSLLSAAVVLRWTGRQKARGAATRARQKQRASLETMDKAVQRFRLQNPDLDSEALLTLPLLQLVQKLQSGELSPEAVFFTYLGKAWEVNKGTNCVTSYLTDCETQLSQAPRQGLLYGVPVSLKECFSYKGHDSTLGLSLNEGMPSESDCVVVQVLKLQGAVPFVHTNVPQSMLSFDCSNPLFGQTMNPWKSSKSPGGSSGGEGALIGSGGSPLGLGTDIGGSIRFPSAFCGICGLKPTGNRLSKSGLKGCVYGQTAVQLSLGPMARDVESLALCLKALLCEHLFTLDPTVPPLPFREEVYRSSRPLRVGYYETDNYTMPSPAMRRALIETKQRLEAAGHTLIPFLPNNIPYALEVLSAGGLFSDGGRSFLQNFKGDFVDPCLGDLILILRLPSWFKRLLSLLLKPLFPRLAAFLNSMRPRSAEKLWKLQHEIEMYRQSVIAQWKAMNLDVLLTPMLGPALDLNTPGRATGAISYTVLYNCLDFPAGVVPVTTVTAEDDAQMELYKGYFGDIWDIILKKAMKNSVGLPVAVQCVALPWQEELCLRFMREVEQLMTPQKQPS
Description: biochemical. It is filed as biochemical. Set-up: from tissue; host or cells: rat brain (membrane fraction of homogenate; Wistar rats).

The subject of the next experiment is rat cortical neurons. The experiment in a line: Transport, accumulation and release of non-metabolized [3H]anandamide in cortical neurons. Format: cell-based. The following applies: AM404 10 μM.
Experiment [2] has as its target T1, electric eel acetylcholinesterase. The experiment in a line: biochemical.
Description: as §1
The mark [3] stands for this setting: Table 3, read-out: Amidohydrolase IC50.
Setting [4] is: Table 4, FAAH IC50, read-out: Inhibition of Amidohydrolase IC50.

T1 sequence (O42275 whole entry): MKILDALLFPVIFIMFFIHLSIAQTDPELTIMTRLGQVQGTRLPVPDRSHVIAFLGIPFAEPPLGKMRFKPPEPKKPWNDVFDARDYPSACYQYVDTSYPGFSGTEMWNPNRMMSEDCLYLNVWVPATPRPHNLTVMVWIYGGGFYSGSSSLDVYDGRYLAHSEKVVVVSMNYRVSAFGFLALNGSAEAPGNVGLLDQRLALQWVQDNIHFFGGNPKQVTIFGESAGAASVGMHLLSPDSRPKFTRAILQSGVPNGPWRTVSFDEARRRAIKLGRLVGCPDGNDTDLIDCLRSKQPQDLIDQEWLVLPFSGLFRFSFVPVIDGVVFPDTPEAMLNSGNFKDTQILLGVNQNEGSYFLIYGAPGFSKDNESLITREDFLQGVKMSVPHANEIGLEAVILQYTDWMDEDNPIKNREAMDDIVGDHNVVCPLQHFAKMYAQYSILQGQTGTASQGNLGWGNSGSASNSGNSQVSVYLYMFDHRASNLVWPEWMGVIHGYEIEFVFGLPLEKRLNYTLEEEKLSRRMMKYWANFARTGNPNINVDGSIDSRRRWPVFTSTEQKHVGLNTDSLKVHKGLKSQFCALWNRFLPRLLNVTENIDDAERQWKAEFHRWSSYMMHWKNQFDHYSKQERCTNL

With “2.3-dihyrdo-2.2-dimethyl-7-benzogumaol N-methylcarbamate [PL#15, reference compound]”, the IC50 is 0.56 µM in experiment [1], > 30000 nM at FAAH (setting [3]) and > 30000 nM on FAAH (setting [4]).
4-fluoraphenyl N-butylcarbamate [PL#12]: the IC50 is > 30 µM in experiment [1], 11500 nM on FAAH (setting [3]) and 11500 nM on FAAH (setting [4]).
Turning to `CCCCC/C=C\C/C=C\C/C=C\C/C=C\CCCC(=O)Nc1ccc(O)cc1` [AM404, N-(4-hydroxyphenyl)arachidonamide, reference compound], the “accumulation of non-metabolized [3H]anandamide in neurons” value in the experiment on rat cortical neurons (4-min incubation, UCM532 3 μM, UCM597 10 nM) was “significantly reducing; also recorded: reduces”. Moreover, the “effect on [3H]anandamide release from UCM597-treated neurons” value with rat cortical neurons (15-min incubation) is given as “not inhibited”.
Regarding `O=C(NC1CCCCC1)Oc1ccc(-c2ccccc2)cc1` [PL#5, 4-biphenyl N-cyclohexylcarbamate], the values for the IC50 (in experiment [2]; on FAAH (read-out: Amidohydrolase IC50); at FAAH (read-out: Inhibition of Amidohydrolase IC50)) were > 30 µM, 2300 nM and 2300 nM, respectively.
For `Cc1ccc(OC(=O)NC2CCCCC2)cc1` [PL#6, p-toly-N-cyclohexy carbamate], the IC50 in experiment [2] is > 30 µM; on FAAH (setting [3]), 5400 nM; on FAAH (setting [4]), 5400 nM.
Regarding `O=C(Nc1ccc(F)cc1)Oc1ccc(OCc2ccccc2)cc1` [PL#8, 4-(benzyloxy) phenyl N-(4-fluorophenyl)carbamate], the IC50 was > 30 µM in experiment [2], > 30000 nM at FAAH (setting [3]) and > 30000 nM on FAAH (setting [4]).
`CC(C)(C)NC(=O)Oc1ccc(-c2ccccc2)cc1Cl` [PL#10, 3-chloro-4-biphenylyl N-tert-butylcarbamate]: the figures for the IC50 (in experiment [2]; on FAAH (setting [3]); at FAAH (setting [4])) were > 30 µM, > 30000 nM and > 30000 nM, respectively.
As for `O=C(NC1CCCCC1)Oc1ccc2ccccc2c1` [PL#11, 2-naphthyl N-cyclohexylcarbamate], the IC50 is > 30 µM in experiment [2]; 330 nM on FAAH (setting [3]); 330 nM at FAAH (setting [4]); 324 ± 31 nM at FAAH (rat brain membranes, read-out: IC50).
With `CCCCOC(=O)Oc1ccc(C(=O)Oc2ccc(OC)cc2)cc1` [PL#17, O-butyl 4-(4-methoxyphenoxycarbonyl)-phenyl carbonate], the IC50 in experiment [2] was > 30 µM; at FAAH (setting [3]), 9100 nM; on FAAH (setting [4]), 9100 nM.
Consider `CNC(=O)Oc1cccc2ccccc12` [PL#18, carbaryl, reference compound], for which the figures for the IC50 (in experiment [1]; against FAAH (IC50(nM))) were 3.1 µM and > 100000 nM, respectively. Further, the “inhibition of FAAH activity (in words)” value on FAAH is listed as “ineffective”.
In the case of hexyl-N-cyclohexyl carbamate [PL#9], the IC50 in experiment [1] is > 30 µM; on FAAH (setting [3]), 3700 nM; on FAAH (setting [4]), 3700 nM.
